PMC7112222, “Investigation of pyrimidine nucleoside analogues as chemical probes to assess compound effects on the proliferation of Trypanosoma cruzi intracellular parasites” (PLoS Neglected Tropical Diseases, 2020)
Where two headings read alike, the source gives them in different places.

What was measured:
[1] = system: T. cruzi intracellular amastigotes; test: Image-based assay of the number of T. cruzi infected cells (intracellular amastigotes in 3T3 host cells); assay type: cell-based, Trypanosoma cruzi; conditions: for IC50: highest test concentration 183 μM
Method: (§1) Parasites and host cells were maintained as outlined previously. Briefly, host 3T3 fibroblasts (ATCC, CCL-92) were grown in RPMI medium (Thermo Fisher Scientific, USA) with no phenol red, supplemented with 10% FBS (Thermo Fisher Scientific, USA) and incubated at 37°C in 5% CO2. Host cells were harvested at 70% confluency and were split every 2–3 days in 175 cm^2 flasks. 3T3 cells were cultured up to passage 7 as contact inhibition was reduced or lost at higher passages. Prior to infection with T. cruzi trypomastigotes, host cells were seeded at 1.2 x 10^6 cells in 75 cm^2 or 4 x 10^5 cells in 25 cm^2 flasks and grown for 24 hours before parasite addition. Parasites were added at a multiplicity of infection (MOI) of 10:1 and incubated for 24 hours before non-infected trypomastigotes were washed off the host cell bed with PBS supplemented with Ca^2+ and Mg^2+ (Thermo Fisher Scientific, USA). Incubation was continued for a further 3 days, until tissue culture trypomastigotes began to egress from host cells. Egressed parasites were used for assays or to continue the infective life cycle in vitro.
(§2) The activity of the nucleoside analogues against T. cruzi intracellular amastigotes following 24, 48 hours exposure and compound wash off, was determined using image-based techniques as previously described. Briefly, 14-point serial dilutions of the compounds in 100% DMSO were prepared and then further diluted in sterile water at a ratio of 1:21 compound: water. Five microliters of the diluted compounds were added to wells of T. cruzi infected host cells, using a MiniTrak compound handling device (Perkin Elmer, USA) with final concentrations in the plate ranging from 183 μM to 4.6 x 10^−4 μM. All experiments were performed with two separate biological replicates.
IC50 values for inhibitory activity of both the nucleoside analogues tested as DNA probes and known inhibitors tested to determine their effect on replication of T. cruzi were calculated in GraphPad Prism 5, using sigmoidal dose response with variable slope. […] The p-value for difference in the % activity at Emax concentrations for compounds with known activity (EdU identified parasites, compared to Hoechst identified parasites) against T. cruzi was determined using GraphPad Prism 5, using an unpaired student’s t-test. […] The Emax for each compound was at least two data points in from the beginning of the plateau of activity in the IC50 curve, as previously described.

3T3 cells = test: Image-based assay, effect on 3T3 host cells; assay type: cell-based
Method: as §1
as §2, with “The activity of the nucleoside analogues against T. cruzi intracellular amastigotes following 24, 48 hours exposure and compound wash off, was determined using image-based techniques as previously described.” left out
Image analysis was performed with a script developed in Columbus software (CHEMICAL LABEL INCORPORATION SCRIPT). Control wells were also imaged at an increased, 60x magnification to show the distribution of staining and the structure of the parasites within host cells. Eight background control wells consisted of infected host cells, fixed and exposed to Hoechst and the click chemistry cocktail, without the addition of the chemical probe EdU. […] The percentage activity of compounds against parasite number / infected cells (identified with Hoechst) was calculated against a positive control of 12 μM of NFX for the parasite and 30 μM of PURO the host cells; and a negative control of 0.47% DMSO. All images taken were not modified and were taken on an Opera, confocal image-based reader.

HEK293 cells [2] = test: Redox-based assay to assess HEK293 viability; assay type: cell-based, human; conditions: Homo sapiens, HEK293, 48 hours exposure
Method: To determine the effect of the nucleoside analogues against a replicating mammalian cell line, analogues were tested against HEK293 cells, utilising a REDOX-based metabolic assay to assess cell viability as previously described. […] Experiments were performed over two biological replicates.

HEK293 cells [3] = conditions: read-out: IC50 value, cytotoxicity against HEK293 cells; 72 hours exposure; cited from earlier work

C#Cc1cn([C@H]2C[C@H](O)[C@@H](CO)O2)c(=O)[nH]c1=O [EdU, 5-ethynyl-2′-deoxy-uridine]
SI (selectivity index to T. cruzi intracellular amastigotes in relation to HEK293 cells) ([1]; 48 hours exposure): 17
inhibition at 0.018 µM ([1]; Trypanosoma cruzi, 48 h, 0.018 μM, 48 hours, read-out: inhibition of T. cruzi growth): 63 ± 19%
inhibition at 0.037 µM ([1]; Trypanosoma cruzi, 48 h, 0.037 μM, 48 hours, read-out: inhibition of T. cruzi growth): 51 ± 13%
IC50 ([1]; Trypanosoma cruzi, 24 hours exposure, read-out: T. cruzi 24 IC50 value): 73 ± 49 nM
Emax ([1]; Trypanosoma cruzi, 24 hours exposure, read-out: T. cruzi 24 relative Emax (in brackets) (converted)): 83%
IC50 ([1]; Trypanosoma cruzi, 48 hours incubation, compound wash off, further 72 hours without compound, read-out: T. cruzi Wash off IC50 value): 420 ± 61 nM
Emax ([1]; Trypanosoma cruzi, 48 hours incubation, wash off, further 72 hours without compound, read-out: T. cruzi Wash off relative Emax (in brackets) (converted)): 99%
IC50 ([1]; Trypanosoma cruzi, 48 hours incubation, read-out: T. cruzi 48 IC50 value): 40 ± 25 nM
Emax ([1]; Trypanosoma cruzi, 48 hours incubation, read-out: T. cruzi 48 relative Emax (in brackets) (converted)): 98%
activity against host cells after short exposure (3T3 cells; 2 and 4 hour exposures, 73 μM): less than 20%
Host cell 3T3 IC50 value 48 h (3T3 cells; 48 h, highest test concentration 183 μM): NA (NA = ≤50% activity at the highest concentration tested and an IC50 value could not be determined)
activity against 3T3 cells in the image-based assay (3T3 cells; 48 hours): < 20%
IC50 (HEK293 cells [2]; highest test concentration 87 μM, EdU value estimated, relative to Emax plateau of 57%): 670 ± 260 nM
Emax (HEK293 cells [2]; read-out: plateau of activity (Emax) against HEK293 cells): 57%
IC50 (HEK293 cells [3]): 60 ± 43 nM
